Three compounds from BindingDB's records for doi:10.1111/j.1747-0285.2008.00638.x (Mcgill University/Royal Victoria Hospital, 2008) can be followed below.

Epidermal growth factor receptor, sequence (P00533 whole entry): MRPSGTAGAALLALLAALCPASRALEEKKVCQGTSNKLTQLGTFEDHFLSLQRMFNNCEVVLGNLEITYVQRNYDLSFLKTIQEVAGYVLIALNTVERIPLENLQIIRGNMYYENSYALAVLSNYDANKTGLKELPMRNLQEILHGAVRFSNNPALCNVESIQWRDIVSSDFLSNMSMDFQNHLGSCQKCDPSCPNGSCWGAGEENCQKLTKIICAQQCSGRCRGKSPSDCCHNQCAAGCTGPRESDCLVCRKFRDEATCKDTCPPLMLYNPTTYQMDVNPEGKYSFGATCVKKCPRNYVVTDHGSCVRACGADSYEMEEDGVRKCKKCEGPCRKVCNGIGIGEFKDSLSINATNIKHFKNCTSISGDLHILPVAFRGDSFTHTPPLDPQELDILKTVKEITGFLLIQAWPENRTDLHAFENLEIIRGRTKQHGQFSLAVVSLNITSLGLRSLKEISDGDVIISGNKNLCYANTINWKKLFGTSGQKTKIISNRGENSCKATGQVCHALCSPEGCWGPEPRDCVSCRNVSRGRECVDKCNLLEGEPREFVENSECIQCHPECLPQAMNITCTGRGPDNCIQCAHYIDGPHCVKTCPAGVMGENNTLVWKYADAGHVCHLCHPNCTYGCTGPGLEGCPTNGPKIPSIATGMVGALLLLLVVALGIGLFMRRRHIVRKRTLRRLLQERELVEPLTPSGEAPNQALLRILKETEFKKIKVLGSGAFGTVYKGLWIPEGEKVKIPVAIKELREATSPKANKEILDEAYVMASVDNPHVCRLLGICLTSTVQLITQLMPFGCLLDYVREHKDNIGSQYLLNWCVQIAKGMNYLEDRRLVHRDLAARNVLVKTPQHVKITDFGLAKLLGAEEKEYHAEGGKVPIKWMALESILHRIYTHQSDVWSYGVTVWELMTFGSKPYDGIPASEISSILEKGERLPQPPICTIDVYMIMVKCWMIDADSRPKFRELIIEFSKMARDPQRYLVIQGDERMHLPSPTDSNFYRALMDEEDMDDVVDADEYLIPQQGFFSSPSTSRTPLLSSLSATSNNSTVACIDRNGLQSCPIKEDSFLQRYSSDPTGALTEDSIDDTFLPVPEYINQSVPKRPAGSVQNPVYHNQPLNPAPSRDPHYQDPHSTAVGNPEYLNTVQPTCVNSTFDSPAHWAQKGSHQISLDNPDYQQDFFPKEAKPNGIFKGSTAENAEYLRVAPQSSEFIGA

The assay deals with Epidermal growth factor receptor (Homo sapiens, UniProt P00533). The assay can be described thus: Kinase Enzyme Assay. To be noted: 37 °C. An excerpt:
EGFR kinase assay was perform using Nunc MaxiSorp purchased from Nalge Nunc Interantional.
In the case of `Cc1cccc(Nc2ncnc3ccc(/N=N/N(C)CCN(CCN4CCOCC4)CCN(C)/N=N/c4ccc5ncnc(Nc6cccc(C)c6)c5c4)cc23)c1` [Bis-quinazolinotriazene, 5a], inhibition was half-maximal at 950 nM (IC50).
For `CN(CCN(CCN1CCOCC1)CCN(C)/N=N/c1ccc2ncnc(Nc3cccc(Br)c3)c2c1)/N=N/c1ccc2ncnc(Nc3cccc(Br)c3)c2c1` [Bis-quinazolinotriazene, 5b], the half-maximal inhibitory concentration (IC50) (usually the concentration that gives 50% inhibition) came to 120 nM.
Next, `CN(CCN(CCN1CCOCC1)CCN(C)/N=N/c1ccc2ncnc(Nc3cccc(Cl)c3)c2c1)/N=N/c1ccc2ncnc(Nc3cccc(Cl)c3)c2c1` [Bis-quinazolinotriazene, 5c]: 150 nM.
